Common to all, as to test: DTP human tumour cell line panel, 48 h
Assay [1] deals with IGROV1 ovarian.
Assay [2] relates to 786-0 renal.
Assay [3] relates to A549 NSCLC.
The test system of assay [4] is MDA-MB-435.
Assay [5] has as its system A498 renal.
Assay [6] deals with SNB-19 CNS.
Assay [7] concerns NCI-H460 lung.
Assay [8] has as its system OVCAR-4 ovarian.
The test system of assay [9] is OVCAR-3 ovarian.
In assay [10] the test system is RPMI-8226 leukemia.

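Cultured in 96-well plates, cells were exposed to test compound for 48 hours across five concentrations. GI50 marks 50% less growth. The concentration for full growth arrest is given as TGI.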

Consider `Nc1ccc(C2=CC(c3ccc(Cl)cc3)N3C=CSC3=N2)cc1` (stereo not drawn), for which the GI50 in [1] was 2.53 µM; in assay [2] it was 6.74 µM; in assay [3], 3.68 µM; in [4], 2.43 µM; in assay [5], 6.17 µM; in assay [6], 11.8 µM. The results for the GI50 in [7], in assay [8] and in assay [9] were 20.2 µM, 13 µM and 2.79 µM, respectively. Further, the TGI was found to be 6.69 µM in [1]; 25.7 µM in assay [2]; 53.4 µM in [3]; 6.76 µM in assay [4]; 23.8 µM in assay [5]; 29 µM in [6]. In addition, the results for the TGI in assay [7], in assay [8] and in [9] were greater than 100 µM, greater than 100 µM and 7.43 µM, respectively.
In the case of `O=C(CCCN1CCC(O)(c2ccc(Cl)cc2)CC1)c1ccc(F)cc1`, the TGI was greater than 100 µM in assay [1]; 39.8 µM in [2]; greater than 100 µM in assay [3]; 33.7 µM in assay [4]; greater than 100 µM in assay [10]; greater than 100 µM in assay [6]. Also, the results for the concentration for total growth inhibition (TGI) in assay [7], in assay [8] and in assay [9] were 45.1 µM, greater than 100 µM and 45.2 µM, respectively.
Consider `CCC(C)Nc1ccc(N)cc1` (stereo not drawn), for which the GI50 was 4.79 µM in assay [1]; 3.89 µM in [2]; 4.7 µM in [3]; 4.11 µM in [4]; 7.9 µM in [5]; 8.42 µM in assay [6]. Besides, the GI50 is 3.85 µM in assay [7], 3.18 µM in assay [8] and 2.28 µM in assay [9]. Besides, the TGI in [1] was determined as 20.5 µM; in assay [2], 14.3 µM; in [3] it was 48.5 µM; in [4] it was 15.3 µM; in assay [5], 23.4 µM; in assay [6] it was 52.5 µM. Besides, the total growth inhibition concentration (TGI) in assay [7] came out at 13.9 µM; in assay [8], 38.6 µM; in assay [9] it was 5.54 µM.
In the case of `COc1ccc(/C(COc2ccc3oc(-c4ccccc4)cc(=O)c3c2)=N\O)cc1`, the concentration for 50% growth inhibition (GI50) in assay [1] is less than 0.005 µM; in assay [2] it was 0.855 µM; in assay [3], 0.133 µM; in assay [4], less than 0.005 µM; in assay [10] it was 0.196 µM; in assay [6] it was 8.57 µM. The values for the GI50 in assay [7], in assay [8] and in [9] were 0.0882 µM, 10.4 µM and less than 0.005 µM, respectively. The TGI was greater than 50 µM in assay [1]; greater than 35.6 µM in assay [2]; greater than 50 µM in assay [3]; less than 0.005 µM in [4]; 20 µM in assay [10]; greater than 36.5 µM in assay [6]. Moreover, the concentration for total growth inhibition (TGI) is greater than 16.3 µM in assay [7], greater than 29.9 µM in [8] and 0.0538 µM in assay [9].
In the case of `Cc1ccc(/C=N/Nc2nc(Nc3ccccc3)nc(-n3nc(C)cc3C)n2)cc1`, the GI50 was 4.99 µM in assay [1]; 3.7 µM in assay [2]; 4.19 µM in assay [3]; 4.84 µM in assay [4]; 3.19 µM in assay [10]; 7.13 µM in [5]. The GI50 in assay [7] is 2.11 µM; in assay [8], 3.06 µM; in assay [9], 3.2 µM. Further, the TGI in assay [1] came to 44.8 µM; in [2], 36.9 µM; in [3] it was 35.7 µM; in assay [4] it was 37.6 µM; in [10] it was 12.9 µM; in [5] it was 92.4 µM. The figures for the total growth inhibition concentration (TGI) in assay [7], in assay [8] and in assay [9] were 8.91 µM, 25.5 µM and 43.6 µM, respectively.
On to `Cc1csc2[n+]1-c1ccccc1N(C(=O)Nc1ccccc1)C(C)C2` (stereo not drawn), for which the GI50 in assay [1] is 80.7 µM; in assay [2], 17.7 µM; in assay [3] it was 36.6 µM; in [4], greater than 100 µM; in assay [10], 67.5 µM; in assay [6] it was greater than 100 µM. Further, the GI50 is 81 µM in [7] and greater than 100 µM in assay [9]. Further, the TGI in [1] is greater than 100 µM; in assay [2], 35.8 µM; in assay [3] it was greater than 100 µM; in assay [4], greater than 100 µM; in assay [10], greater than 100 µM; in assay [6] it was greater than 100 µM. The TGI in [7] and in assay [9] was greater than 100 µM in each case.
Regarding `COc1ccc(Cc2coc3ccccc3c2=O)cc1OC`, the TGI in assay [1], in assay [2], in [3], in assay [4], in [10] and in [6] was greater than 100 µM throughout. Also, the total growth inhibition concentration (TGI) in [7], in assay [8] and in [9] was greater than 100 µM throughout.
Turning to `O=S(=O)(O)c1cc(O)c(N=Nc2ccc(O)cc2O)c2ccccc12`, the concentration for total growth inhibition (TGI) in [1], in assay [2], in assay [3], in [4], in [10] and in [6] was greater than 100 µM each time. The TGI in [8] and in assay [9] was greater than 100 µM in each case.
In the case of `COC12C=C/C(=C(/C(=O)OCc3ccccn3)C(=O)CCCCCCCCC3(OC)C=C/C(=C(/C(=O)OCc4ccccn4)C(=O)CCCCCCCC1)O3)O2`, the 50% growth inhibitory concentration (GI50) is 0.421 µM in assay [1]; 0.326 µM in assay [2]; 0.626 µM in assay [3]; 0.209 µM in [4]; 0.371 µM in [10]; 1.06 µM in [5]. Moreover, the GI50 was 1.43 µM in assay [6], 0.332 µM in assay [8] and 0.326 µM in [9]. Besides, the TGI was found to be 3.73 µM in assay [1]; 1.05 µM in assay [2]; 3.49 µM in assay [3]; 0.48 µM in [4]; 1.85 µM in assay [10]; 2.29 µM in assay [5]. For the same compound, the total growth inhibition concentration (TGI) is greater than 100 µM in assay [6], 2.28 µM in assay [8] and 1.1 µM in assay [9].
With `C[C@]12CC[C@H]3[C@@H](CC=C4C[C@@H](N5CCCC5)CC[C@@]43C)[C@@H]1C/C(=C\c1cccc(OCCN3CCOCC3)c1)[C@@H]2O`, the GI50 in [1] is 12.8 µM; in assay [2], 1.64 µM; in assay [3], 3.48 µM; in assay [4], 3.64 µM; in assay [5] it was 3.52 µM; in assay [6], 4.41 µM. Also, the GI50 was 3.28 µM in [7], 13.3 µM in assay [8] and 2.3 µM in assay [9]. Besides, the TGI in assay [1] is greater than 100 µM; in [2], 3.62 µM; in [3], 45.4 µM; in assay [4] it was greater than 100 µM; in assay [5], 15 µM; in assay [6], greater than 100 µM. The total growth inhibition concentration (TGI) in [7] is greater than 100 µM; in assay [8] it was 55.2 µM; in [9] it was 7.55 µM.
Consider `OC(COC(c1ccccc1)(c1ccccc1)c1ccccc1)C(O)CC1SCCS1` (stereo not drawn), for which the total growth inhibition concentration (TGI) in [1] was determined as 30.5 µM; in assay [2], 39.7 µM; in assay [4], 91.9 µM; in assay [10] it was 34.2 µM; in assay [5], 28.4 µM; in assay [6], 54.9 µM. The compound further yielded a total growth inhibition concentration (TGI) in assay [9] of 62.9 µM.
For the compound `Cc1cc2c(cc1Cl)S/C(=C/C(=O)O)C(Nc1ccc3ncsc3c1)=NS2(=O)=O`, the GI50 in assay [1] was 31.9 µM; in [2], 8.57 µM; in assay [3], greater than 25 µM; in [4] it was greater than 33.5 µM; in [10] it was 1.68 µM; in assay [6] it was greater than 34.3 µM. Besides, the GI50 in [7] is 16.2 µM; in [8], greater than 34.3 µM; in [9] it was 14 µM. In addition, the TGI is greater than 100 µM in assay [1]; 22.1 µM in assay [2]; greater than 62 µM in assay [3]; greater than 53.4 µM in assay [4]; 19.3 µM in [10]; greater than 56.2 µM in [6]. Also, the TGI in [7] is greater than 100 µM; in assay [8] it was greater than 54.5 µM; in [9], 41.2 µM.
As to `Nc1nc([Se])c2ncn(C3OC(CO)C(O)C3O)c2n1` (stereo not drawn), the GI50 is 25.9 µM in assay [1]; 17.2 µM in assay [2]; 25.1 µM in assay [3]; 15.1 µM in [4]; 17 µM in assay [5]; greater than 100 µM in assay [6]. The GI50 was 4.54 µM in assay [7], 27.4 µM in assay [8] and 17.4 µM in assay [9]. For the same compound, the concentration for total growth inhibition (TGI) in assay [1], in [2], in assay [3], in assay [4], in assay [5] and in [6] was greater than 100 µM each time. Besides, the TGI in assay [7] is 57.1 µM; in assay [8] it was greater than 100 µM; in assay [9] it was 68.8 µM.

Values taken from PubChem BioAssay (NCI).
